Data taken from patent US11766419B2, “Mebeverine as soluble epoxide hydrolase inhibitor” (Banasthali Vidyapith, priority 2021, dated 2023).

Columns and labels:
Format in all cases: in vivo, rat
[1] = tested on: Triton WR-1339 induced hyperlipidaemic rats; assay: TBAR and SOD level in hepatic tissue, Triton WR-1339 induced hyperlipidemia
Method: Wistar albino male rats were divided into four experimental groups (I, II, III and IV). Groups II-IV were treated with intraperitoneal injection of Triton WR-1339 (200 mg/kg in 2% gum acacia) in 12 h fasted rats to induce hyperlipidemia. Group III and IV were orally administered with Mebeverine twice daily for 3 days at 10 mg/kg and 20 mg/kg. After 48 h, induction of hyperlipidemia blood serum was investigated for total cholesterol and triglycerides. Blood samples were collected from all experimental rats on day 6 (4 days after start of treatment), and, subsequently, serum was separated for analysis of serum lipid profile parameters and CRI/AI. Liver was excised and stored at −80° C. until biochemical parameters in hepatic tissue samples were analysed. The results are tabulated below in Table 6 and plotted in FIGS. 7 (a-e) and 8.
In addition, the effect on oxidative stress markers on hepatic tissue were also observed. The results are shown in Table 7 and plotted in FIGS. 9 and 10.

[2] = tested on: DOCA-induced hypertensive rats; assay: DOCA induced hypertension, blood pressure
Method: Wistar albino male rats were divided into four experimental groups (I, II, III and IV). Groups (II-IV) were administered with DOCA (20 mg/kg in 5% DMSO) intraperitoneally and drinking water was replaced by 2% NaCl. After induction of high blood pressure, Groups III and IV were treated with 10 mg/kg and 20 mg/kg mebeverine orally, respectively. At the end of this experimental period SAP, DAP and MAP were measured. The results are tabulated below in Tables 4A, 4B and 4C, respectively, and are plotted in FIGS. 4a, 4b and 4c.

[3] = tested on: angiotensin-II induced hypertensive rats; assay: Angiotensin II induced hypertension, blood pressure
Method: Wistar albino male rats were divided into four experimental groups (I, II, III and IV). Groups II-IV were infused with Angiotensin II at a continuous rate via subcutaneously implanted osmotic mini pump for 7 days. After induction of high blood pressure, (>140/90 mm of Hg), Groups III and IV were administered with mebeverine twice daily for five consecutive days at 10 mg/kg and 20 mg/kg doses respectively. At the end of this experimental period SAP, DAP and MAP were measured. The results are tabulated below in Tables 3A, 3B, and 3C, respectively, and are plotted in FIGS. 3a, 3b and 3c.

Structure (SMILES): CCN(CCCCOC(=O)c1ccc(OC)c(OC)c1)C(C)Cc1ccc(OC)cc1 (stereo not shown) [Mebeverine]
- SOD ([1]; 10 mg/kg): 65.13 ± 0.22 U/g protein
- TBAR ([1]; 10 mg/kg): 0.78 ± 0.01 nmol/mg protein
- SOD ([1]; 20 mg/kg): 87.27 ± 0.30 U/g protein
- TBAR ([1]; 20 mg/kg): 0.70 ± 0.01 nmol/mg protein
- DAP ([2]; 10 mg/kg orally, D 0): 168 ± 10.60 mm Hg
- MAP ([2]; 10 mg/kg orally, D 0): 179 ± 7.63 mm Hg
- SAP ([2]; 10 mg/kg orally, D 0): 213 ± 2.82 mm Hg
- DAP ([2]; 10 mg/kg orally, D 3): 156 ± 9.89 mm Hg
- MAP ([2]; 10 mg/kg orally, D 3): 170 ± 0.52 mm Hg
- SAP ([2]; 10 mg/kg orally, D 3): 187 ± 8.48 mm Hg
- DAP ([2]; 10 mg/kg orally, D 4): 101 ± 1.52 mm Hg
- MAP ([2]; 10 mg/kg orally, D 4): 114 ± 6.08 mm Hg
- SAP ([2]; 10 mg/kg orally, D 4): 140 ± 8.00 mm Hg
- DAP ([2]; 10 mg/kg orally, D 5): 84 ± 1.06 mm Hg
- MAP ([2]; 10 mg/kg orally, D 5): 99 ± 0.77 mm Hg
- SAP ([2]; 10 mg/kg orally, D 5): 108 ± 1.41 mm Hg
- DAP ([2]; 20 mg/kg orally, D 0): 185 ± 3.50 mm Hg
- MAP ([2]; 20 mg/kg orally, D 0): 199 ± 6.54 mm Hg
- SAP ([2]; 20 mg/kg orally, D 0): 226 ± 4.94 mm Hg
- DAP ([2]; 20 mg/kg orally, D 3): 128 ± 7.07 mm Hg
- MAP ([2]; 20 mg/kg orally, D 3): 140 ± 1.71 mm Hg
- SAP ([2]; 20 mg/kg orally, D 3): 166 ± 6.36 mm Hg
- DAP ([2]; 20 mg/kg orally, D 4): 83 ± 5.13 mm Hg
- MAP ([2]; 20 mg/kg orally, D 4): 96 ± 7.57 mm Hg
- SAP ([2]; 20 mg/kg orally, D 4): 114 ± 10.01 mm Hg
- DAP ([2]; 20 mg/kg orally, D 5): 72 ± 0.70 mm Hg
- MAP ([2]; 20 mg/kg orally, D 5): 86 ± 0.63 mm Hg
- SAP ([2]; 20 mg/kg orally, D 5): 98 ± 1.09 mm Hg
- DAP ([3]; 10 mg/kg twice daily, D 0): 189 ± 13.43 mm Hg
- MAP ([3]; 10 mg/kg twice daily, D 0): 200 ± 8.40 mm Hg
- SAP ([3]; 10 mg/kg twice daily, D 0): 213 ± 6.360 mm Hg
- DAP ([3]; 10 mg/kg twice daily, D 3): 168 ± 6.86 mm Hg
- MAP ([3]; 10 mg/kg twice daily, D 3): 182 ± 12.02 mm Hg
- SAP ([3]; 10 mg/kg twice daily, D 3): 208 ± 6.970 mm Hg
- DAP ([3]; 10 mg/kg twice daily, D 4): 95 ± 11.70 mm Hg
- MAP ([3]; 10 mg/kg twice daily, D 4): 110 ± 16.78 mm Hg
- SAP ([3]; 10 mg/kg twice daily, D 4): 146 ± 5.370 mm Hg
- DAP ([3]; 10 mg/kg twice daily, D 5): 92 ± 4.24 mm Hg
- MAP ([3]; 10 mg/kg twice daily, D 5): 108 ± 1.07 mm Hg
- SAP ([3]; 10 mg/kg twice daily, D 5): 140 ± 2.120 mm Hg
- DAP ([3]; 20 mg/kg twice daily, D 0): 152 ± 1.40 mm Hg
- MAP ([3]; 20 mg/kg twice daily, D 0): 170 ± 4.30 mm Hg
- SAP ([3]; 20 mg/kg twice daily, D 0): 193 ± 3.530 mm Hg
- DAP ([3]; 20 mg/kg twice daily, D 3): 109 ± 28.80 mm Hg
- MAP ([3]; 20 mg/kg twice daily, D 3): 128 ± 7.07 mm Hg
- SAP ([3]; 20 mg/kg twice daily, D 3): 147 ± 5.600 mm Hg
- DAP ([3]; 20 mg/kg twice daily, D 4): 86 ± 1.70 mm Hg
- MAP ([3]; 20 mg/kg twice daily, D 4): 98 ± 1.51 mm Hg
- SAP ([3]; 20 mg/kg twice daily, D 4): 123 ± 7.28 mm Hg
- DAP ([3]; 20 mg/kg twice daily, D 5): 82 ± 3.53 mm Hg
- MAP ([3]; 20 mg/kg twice daily, D 5): 92 ± 2.82 mm Hg
- SAP ([3]; 20 mg/kg twice daily, D 5): 119 ± 7.07 mm Hg
